A word on the IC50: it is the concentration that inhibits the measured activity by half.

From US20070049593A1 (priority 2004, published 2007) come the findings set out here.

Structures can show the parent of a compound that is named as a salt. Bounds are passed on as bounds.

The test deals with T1, HCV polymerase (Hepatitis C virus genotype 1b, UniProt P26663).
T1 construct: a region encoding NS5B (J Virol 1991 March, 65(3), 1105-13, 544 amino acids after deletion of 47 amino acids on the C-terminal); 6xHis (C); made in house; host or cells: Escherichia coli
T1 sequence (P26663 2420-2963): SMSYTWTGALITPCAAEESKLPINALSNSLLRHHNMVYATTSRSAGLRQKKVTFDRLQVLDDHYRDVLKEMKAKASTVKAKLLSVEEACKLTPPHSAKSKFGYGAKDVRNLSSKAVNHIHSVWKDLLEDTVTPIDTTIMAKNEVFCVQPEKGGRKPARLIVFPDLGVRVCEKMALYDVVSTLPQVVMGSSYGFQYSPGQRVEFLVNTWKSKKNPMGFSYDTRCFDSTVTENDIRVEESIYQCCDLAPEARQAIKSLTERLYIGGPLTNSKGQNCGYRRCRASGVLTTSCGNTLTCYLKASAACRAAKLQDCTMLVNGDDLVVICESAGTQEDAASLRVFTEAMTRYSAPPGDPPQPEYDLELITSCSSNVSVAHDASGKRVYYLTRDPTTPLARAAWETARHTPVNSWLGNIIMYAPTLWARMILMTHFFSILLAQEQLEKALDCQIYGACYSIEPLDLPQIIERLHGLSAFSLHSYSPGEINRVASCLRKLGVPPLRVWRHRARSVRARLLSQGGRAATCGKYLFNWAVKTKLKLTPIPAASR
As to the kind of experiment: biochemical. On the set-up: species or system HCV BK strain. The method in brief:
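His-tagged NS5B (BK strain, 47-aa C-terminal deletion, E. coli-expressed) at 0.5 μg/ml copied 5 μg/ml run-off RNA bearing the HCV 3′ UTR with 2 μM UTP plus [3H]UTP, 50 μM ATP/GTP, in pH 7.5 Tris with 5 mM MgCl2, 25 °C, 90 min. TCA-precipitated RNA was counted and IC50 calculated.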

As to `CCN1CCN(C(=O)CN2CCn3c(c(C4CCCCC4)c4ccc(C(=O)O)cc43)-c3ccccc32)CC1` [Example 1-30, 13-cyclohexyl-5-[2-(4-ethylpiperazin-1-yl)-2-oxoethyl]-6,7-dihydro-5H-benzo[5,6][1,4]diazepino[7,1-a]indole-10-carboxylic acid dihydrochloride], the IC50 was < 100 nM.

With `CC(C)(CNc1ccc(C(N)=O)cc1)NC(=O)c1ccc2c(C3CCCCC3)c3n(c2c1)CCOc1ccccc1-3` [Example 2-184, N-[2-(4-carbamoylphenylamino)-1,1-dimethylethyl]-12-cyclohexyl-6,7-dihydro-5-oxa-7a-azadibenzo[a,e]azulene-9-carboxamide], the IC50 is < 100 nM.

On to `CC(C)(C)OC(=O)N1CCC(CCOc2cccc3c2OCCn2c-3c(C3CCCCC3)c3ccc(C(=O)O)cc32)CC1` [Example 2-457, 4-[2-(1-tert-butoxycarbonylpiperidin-4-yl)ethoxy]-12-cyclohexyl-6,7-dihydro-5-oxa-7a-azadibenzo[a,e]azulene-9-carboxylic acid], for which the IC50 is < 100 nM.

Consider `CN1CCC(OCCOc2cccc3c2OCCn2c-3c(C3CCCCC3)c3ccc(C(=O)O)cc32)CC1` [Example 2-467, 12-cyclohexyl-4-[2-(1-methylpiperidin-4-yloxy)ethoxy]-6,7-dihydro-5-oxa-7a-azadibenzo[a,e]azulene-9-carboxylic acid monohydrochloride], for which the 50% inhibitory concentration (IC50) was < 100 nM.

Consider `COc1ccc2c(c1)OCCn1c-2c(C2CCCCC2)c2ccc(C(=O)N[C@@H](Cc3ccc(O)cc3)C(=O)O)cc21` [Example 2-375, (S)-2-[(12-cyclohexyl-3-methoxy-6,7-dihydro-5-oxa-7a-azadibenzo[a,e]azulene-9-carbonyl)amino]-3-(4-hydroxyphenyl)propionic acid], for which the concentration for half-maximal inhibition (IC50) was < 100 nM.

Regarding `O=C(O)c1ccc2nc(CNC(=O)c3ccc4c(C5CCCCC5)c5n(c4c3)CCOc3ccccc3-5)[nH]c2c1` [Example 2-197, 2-{[(12-cyclohexyl-6,7-dihydro-5-oxa-7a-azadibenzo[a,e]azulene-9-carbonyl)amino]methyl}-3H-benzimidazole-5-carboxylic acid], the IC50 was < 100 nM.

As to `COc1ccc2c(c1)OCCn1c-2c(C2CCCCC2)c2ccc(C(=O)N[C@@H](Cc3ccc(O)cc3)C(=O)NC(C)(C)C(=O)O)cc21` [Example 2-416, 2-[(S)-2-[(12-cyclohexyl-3-methoxy-6,7-dihydro-5-oxa-7a-azadibenzo[a,e]azulene-9-carbonyl)amino]-3-(4-hydroxyphenyl)propionylamino]-2-methylpropionic acid], the IC50 was < 100 nM.

Turning to `COC(=O)[C@H](Cc1c[nH]c2ccc(O)cc12)NC(=O)c1ccc2c(C3CCCCC3)c3n(c2c1)CCOc1cc(OC)ccc1-3` [Example 2-316, methyl (S)-2-[(12-cyclohexyl-3-methoxy-6,7-dihydro-5-oxa-7a-azadibenzo[a,e]azulene-9-carbonyl)amino]-3-(5-hydroxy-1H-indol-3-yl)propionate], the IC50 is < 100 nM.

Turning to `COc1ccc2c(c1)OCCn1c-2c(C2CCCCC2)c2ccc(C(=O)N[C@@H](CCC(N)=O)C(=O)OC(C)(C)C)cc21` [Example 2-371, tert-butyl (S)-4-carbamoyl-2-[(12-cyclohexyl-3-methoxy-6,7-dihydro-5-oxa-7a-azadibenzo[a,e]azulene-9-carbonyl)amino]butyrate], the IC50 was < 100 nM.

In the case of `CCN1CCN(CCN2CCn3c(c(C4CCCCC4)c4ccc(C(=O)O)cc43)-c3ccc(C)cc32)CC1` [Example 1-110, 13-cyclohexyl-5-[2-(4-ethylpiperazin-1-yl)ethyl]-3-methyl-6,7-dihydro-5H-benzo[5,6][1,4]diazepino[7,1-a]indole-10-carboxylic acid trihydrochloride], the IC50 is < 100 nM.

`CC(C)(COc1ccc(C#N)cc1)NC(=O)c1ccc2c(C3CCCCC3)c3n(c2c1)CCOc1ccccc1-3` [Example 2-157, N-[2-(4-cyanophenoxy)-1,1-dimethylethyl]-12-cyclohexyl-6,7-dihydro-5-oxa-7a-azadibenzo[a,e]azulene-9-carboxamide]: the half-maximal inhibitory concentration (IC50) was 100 to 1000 nM.

With `COC1CCN(C(=O)C(C)(C)NC(=O)c2ccc3c(C4CCCCC4)c4n(c3c2)CCOc2ccccc2-4)CC1` [Example 2-294, N-[2-(4-methoxypiperidin-1-yl)-1,1-dimethyl-2-oxoethyl]-12-cyclohexyl-6,7-dihydro-5-oxa-7a-azadibenzo[a,e]azulene-9-carboxamide], the IC50 was < 100 nM.

`CC(C)(C)OC(=O)N1CCCC(CCN2CCn3c(c(C4CCCCC4)c4ccc(C(=O)O)cc43)-c3ccccc32)C1` (centres unmarked) [Example 1-167, 5-[2-(1-tert-butoxycarbonylpiperidin-3-yl)ethyl]-13-cyclohexyl-6,7-dihydro-5H-benzo[5,6][1,4]diazepino[7,1-a]indole-10-carboxylic acid] displayed a half-maximal inhibitory concentration (IC50) of 100 to 1000 nM.

As to `NC(=O)[C@H](Cc1ccc(O)cc1)NC(=O)c1ccc2c(C3CCCCC3)c3n(c2c1)CCOc1ccccc1-3` [Example 2-207, N—[(S)-1-carbamoyl-2-(4-hydroxyphenyl)ethyl]-12-cyclohexyl-6,7-dihydro-5-oxa-7a-azadibenzo[a,e]azulene-9-carboxamide], the IC50 is < 100 nM.

As to `COCC[C@@H]1CCCN(CCN2CCn3c(c(C4CCCCC4)c4ccc(C(=O)O)cc43)-c3ccc(OC(F)(F)F)cc32)C1` [Example 1-523, 13-cyclohexyl-5-{2-[(S)-3-(2-methoxyethyl)piperidin-1-yl]ethyl}-3-trifluoromethoxy-6,7-dihydro-5H-benzo[5,6][1,4]diazepino[7,1-a]indole-10-carboxylic acid dihydrochloride], the half-maximal inhibitory concentration (IC50) was < 100 nM.

For the molecule `O=C(O)c1ccc2c(C3CCCCC3)c3n(c2c1)CCOc1c(-c2ccccc2CO)cccc1-3` [Example 2-325, 12-cyclohexyl-4-(2-hydroxymethylphenyl)-6,7-dihydro-5-oxa-7a-azadibenzo[a,e]azulene-9-carboxylic acid], the concentration for half-maximal inhibition (IC50) is < 100 nM.

Regarding `CCN1CCC(=C(F)CN2CCn3c(c(C4CCCCC4)c4ccc(C(=O)O)cc43)-c3ccccc32)CC1` [Example 1-175, 13-cyclohexyl-5-[2-(1-ethylpiperidin-4-ylidene)-2-fluoroethyl]-6,7-dihydro-5H-benzo[5,6][1,4]diazepino[7,1-a]indole-10-carboxylic acid dihydrochloride], the IC50 was < 100 nM.

`O=C(O)Cn1c(CNC(=O)c2ccc3c(C4CCCCC4)c4n(c3c2)CCOc2ccccc2-4)nc2ccccc21` [Example 2-250, (2-{[(12-cyclohexyl-6,7-dihydro-5-oxa-7a-azadibenzo[a,e]azulene-9-carbonyl)amino]methyl}benzimidazol-1-yl)acetic acid]: the 50% inhibitory concentration (IC50) was < 100 nM.

In the case of `CN(C)CCN(C)C(=O)CN1CCn2c(c(C3CCCCC3)c3ccc(C(=O)O)cc32)-c2ccccc21` [Example 1-222, 13-cyclohexyl-5-{[N-(2-dimethylaminoethyl)-N-methylcarbamoyl]methyl}-6,7-dihydro-5H-benzo[5,6][1,4]diazepino[7,1-a]indole-10-carboxylic acid dihydrochloride], the IC50 was < 100 nM.

As to `O=C(O)c1ccc2c(C3CCCCC3)c3n(c2c1)CCN(CCC1CCCN(C2CCCCC2)C1)c1cc(Cl)ccc1-3` (centres unmarked) [Example 1-379, 3-chloro-13-cyclohexyl-5-[2-(1-cyclohexylpiperidin-3-yl)ethyl]-6,7-dihydro-5H-benzo[5,6][1,4]diazepino[7,1-a]indole-10-carboxylic acid dihydrochloride], the half-maximal inhibitory concentration (IC50) was < 100 nM.

`CN1CCC(N(C)CCOc2cccc3c2OCCn2c-3c(C3CCCCC3)c3ccc(C(=O)O)cc32)CC1` [Example 2-472, 12-cyclohexyl-4-{2-[N-methyl-N-(1-methylpiperidin-4-yl)amino]ethoxy}-6,7-dihydro-5-oxa-7a-azadibenzo[a,e]azulene-9-carboxylic acid trihydrochloride]: the half-maximal inhibitory concentration (IC50) was < 100 nM.

As for `CC1COCCN1CCN1CCn2c(c(C3CCCCC3)c3ccc(C(=O)O)cc32)-c2ccccc21` (centres unmarked) [Example 1-220, 13-cyclohexyl-5-[2-(3-methylmorpholin-4-yl)ethyl]-6,7-dihydro-5H-benzo[5,6][1,4]diazepino[7,1-a]indole-10-carboxylic acid dihydrochloride], the IC50 was < 100 nM.

`O=C(O)c1ccc2c(C3CCCCC3)c3n(c2c1)CCN(CCCN1CCCOCC1)c1cc(Cl)ccc1-3` [Example 1-270, 3-chloro-13-cyclohexyl-5-[3-(1,4-oxazepan-4-yl)propyl]-6,7-dihydro-5H-benzo[5,6][1,4]diazepino[7,1-a]indole-10-carboxylic acid dihydrochloride]: the IC50 is < 100 nM.

For `COc1ccc(-c2cnc(C(C)(C)NC(=O)c3ccc4c(C5CCCCC5)c5n(c4c3)CCOc3ccccc3-5)[nH]2)cc1` [Example 2-307, N-{1-[5-(4-methoxyphenyl)-1H-imidazol-2-yl]-1-methylethyl}-12-cyclohexyl-6,7-dihydro-5-oxa-7a-azadibenzo[a,e]azulene-9-carboxamide], the IC50 is < 100 nM.

For `COc1cccc2c1OCCn1c-2c(C2CCCCC2)c2ccc(C(=O)NC(C)(C)C(=O)Nc3ccc(C(=O)O)cc3)cc21` [Example 2-306, 4-{2-[(12-cyclohexyl-4-methoxy-6,7-dihydro-5-oxa-7a-azadibenzo[a,e]azulene-9-carbonyl)amino]-2-methylpropionylamino}benzoic acid], the IC50 is < 100 nM.

In the case of `O=C(O)c1ccc2c(C3CCCCC3)c3n(c2c1)CCN(CCN1CCCC1)c1ccccc1-3` [Example 1-57, 13-cyclohexyl-5-[2-(pyrrolidin-1-yl)ethyl]-6,7-dihydro-5H-benzo[5,6][1,4]diazepino[7,1-a]indole-10-carboxylic acid dihydrochloride], the IC50 was < 100 nM.
